Measurements as given in patent US7612067B2, “Imidazopyridazine compounds” (Eli Lilly and Company, priority 2005, dated 2009).
Positions count from the first letter of the chain named. Where a name gives a salt, the structure may show the parent alone. Read-outs that look alike come from different tables or passages of the source. Blank lines part the entries; values can stand above or below the compound they belong to.

Key:
[1] = single intravenous dose, comparison CRF antagonists with literature references; cited from earlier work
[2] = Volume of distribution after single intravenous dose; assay type: in vivo, rat; conditions: male Sprague Dawley rats, single 3 mg/kg intravenous dose
Description: The volume of distribution (Vdist) relates the amount of the drug in the body to the concentration of the drug in the blood or plasma. The volume of distribution refers to the fluid volume that would be required to contain the total amount of the drug in the body at the same concentration as in the blood or plasma: Vdist=amount of drug in the body/concentration of drug in blood or plasma (Goodman and Gillman's). For a 10 mg dose and a plasma concentration of 10 mg/L, the volume of distribution would be 1 liter. The volume of distribution reflects the extent to which the drug is present in the extravascular tissue. A large volume of distribution reflects the tendency of a compound to bind to the tissue components compared with plasma protein binding. In a clinical setting, Vdist can be used to determine a loading dose achieve a steady state concentration.
To test for volume of distribution, Male Sprague Dawley rats (N=3) are administered a single 3 mg/kg intravenous dose of compound. Multiple plasma samples are collected at time points from 0.08 to 24 hours post-dose. The plasma samples are analyzed by LC/MS/MS to determine the plasma concentrations. Plasma pharmacokinetic calculations are performed to determine the pharmacokinetic parameters including Vdist and plasma clearance (Clp).

human CRF2 = target: T1, human CRF2 (Homo sapiens, UniProt Q13324); assay: CRF2 filter binding assay; conditions: 50 μM compound, HEK-hCRF2 membranes, 125I-sauvagine
T1 construct: expressed in transfected cells; membranes used
T1 sequence (Q13324 1-411): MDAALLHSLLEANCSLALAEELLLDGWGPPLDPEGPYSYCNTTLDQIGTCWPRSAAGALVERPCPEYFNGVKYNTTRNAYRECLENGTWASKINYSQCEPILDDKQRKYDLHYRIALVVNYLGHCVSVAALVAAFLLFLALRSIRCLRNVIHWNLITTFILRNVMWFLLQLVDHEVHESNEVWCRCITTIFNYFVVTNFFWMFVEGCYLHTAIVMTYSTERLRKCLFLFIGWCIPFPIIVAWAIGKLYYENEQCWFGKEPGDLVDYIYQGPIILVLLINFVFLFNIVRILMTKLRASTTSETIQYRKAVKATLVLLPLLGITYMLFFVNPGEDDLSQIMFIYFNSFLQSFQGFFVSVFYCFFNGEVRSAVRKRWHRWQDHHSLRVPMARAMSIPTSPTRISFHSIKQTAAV
Description: The limitations of plasmid-based human CRF2 expression, in terms of generating a recombinant cell line with sufficient receptor density to develop a binding assay, are overcome by using a Phoenix retroviral expression system licensed from Stanford. The stable HEK-hCRF2 cell line is used to prepare membranes and binding reactions (200 μl) are set up as follows: 50 ul of ^125I-sauvagine (0.2 nM final concentration), 50 μl compound and 100 μl CRF2 membrane (25 μg/reaction). The reactions are incubated at room temperature for 2 hours and then terminated by filtration through pre-treated FB Millipore glass fiber filter plates (96 well). The plates are washed twice with ice-cold assay buffer (50 mM tris, 12.5 mM NaCl, 1 mM EDTA, 10 mM MgCl2, 0.05% BSA, pH 7.2), air dried over night and counted with 100 μl Microscint 40 in a MicroBeta counter. Non-specific binding (NSB) is determined in the presence of 0.5 μM non-labeled sauvagine. Alternatively, compounds are evaluated using a Scintillation Proximity assay. […] Bound radioactivity is assessed using a Wallac Trilux scintillation counter. Binding is assessed typically using triplicate determinations and the median data points plotted by Graph Pad Prism. […]

human CRF1 = target: T2, human CRF1 (Homo sapiens, UniProt P34998); assay: CRF1 filter binding assay; conditions: HEK-hCRF1 membranes, 125I-sauvagine; read-out: Ki (inhibition constant)
T2 construct: expressed in transfected cells; membranes used
T2 sequence (P34998 24-415): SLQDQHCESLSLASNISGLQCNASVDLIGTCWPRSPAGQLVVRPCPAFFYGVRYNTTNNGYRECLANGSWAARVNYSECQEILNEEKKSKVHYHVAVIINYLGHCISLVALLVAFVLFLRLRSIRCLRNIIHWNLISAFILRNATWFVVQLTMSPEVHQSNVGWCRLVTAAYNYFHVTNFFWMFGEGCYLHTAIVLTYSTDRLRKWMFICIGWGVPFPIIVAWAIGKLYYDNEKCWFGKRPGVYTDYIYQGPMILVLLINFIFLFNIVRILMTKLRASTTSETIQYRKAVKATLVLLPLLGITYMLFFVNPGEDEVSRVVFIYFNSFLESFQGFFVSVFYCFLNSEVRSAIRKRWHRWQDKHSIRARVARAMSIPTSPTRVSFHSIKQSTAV
Description: The limitations of plasmid-based human CRF1 expression, in terms of generating a recombinant cell line with sufficient receptor density to develop a binding assay, are overcome by using a Phoenix retroviral expression system licensed from Stanford. The stable HEK-hCRF1 cell line is used to prepare membranes and binding reactions (200 μl) are set up as follows: 50 μl of ^125I-sauvagine (0.2 nM final), 50 μl compound and 100 μl CRF1 membrane (25 μg/reaction). The reactions are incubated at room temperature for 2 hours and then terminated by filtration through pre-treated FB Millipore glass fiber filter plates (96 well). The plates are wash twice with ice-cold assay buffer (50 mM tris, 12.5 mM NaCl, 1 mM EDTA, 10 mM MgCl2, 0.05% BSA, pH 7.2), air dried over night and counted with 100 μl Microscint 40 in a MicroBeta counter. Non-specific binding (NSB) is determined in the presence of 0.5 μM non-labeled sauvagine. Triplicate determinations are typically run and the median data points plotted by Graph Pad Prism.

[3] = target: T3, binding of 125I-sauvagine to the cerebellum (Rattus norvegicus, UniProt P35353); assay: In vivo potency assessment using ex vivo binding; conditions: oral route, ex vivo 125I-sauvagine binding to cerebellum
T3 construct: from tissue; host or cells: rat cerebellum
T3 sequence (P35353 24-415): T2 sequence (P34998 24-415) with H6R, S9N, A13T, I16V, M153V, G163A, I209V, Y229H, H356R
Description: To assess in vivo potency, a compound of the present invention is evaluated using ex vivo binding. Using the procedures as provided in D. R. Gehlert et al., EJP 509: 145-153 (2005), a compound is administered to a rat via the oral route.

SMILES: CCCCN(CC)c1nc(C)nc2c1c(C)cn2-c1c(C)cc(C)cc1C [CP154526]
rat Vdist [1]: 114 L/kg

rat Vdist [2]: 17 L/kg
SMILES: CCC(CC)c1cc(C)nn2c(-c3sc(-c4ccc(F)cc4)cc3C)c(C)nc12 [Example 39, 8-(1-ethyl-propyl)-3-[5-(4-fluoro-phenyl)-3-methyl-thiophen-2-yl]-2,6-dimethyl-imidazo[1,2-b]pyridazine]

rat Vdist [2]: 9 L/kg
SMILES: CCC(CC)c1cc(C)nn2c(-c3sc(-c4ncnn4C)nc3Br)c(C)nc12 [Example 48, 3-[4-bromo-2-(2-methyl-2H-[1,2,4]triazol-3-yl)-thiazol-5-yl]-8-(1-ethyl-propyl)-2,6-dimethyl-imidazo[1,2-b]pyridazine]

rat Vdist [2]: 44 L/kg
SMILES: CCC(CC)c1cc(C)nn2c(-c3sc(-c4ncnn4C)cc3Cl)c(C)nc12 [Example 88, 3-[3-chloro-5-(2-methyl-2H-[1,2,4]triazol-3-yl)-thiophen-2-yl]-8-(1-ethyl-propyl)-2,6-dimethyl-imidazo[1,2-b]pyridazine]

inhibition at 50 µM (human CRF2; read-out: percent inhibition at 50 μM): 9 ± 2.6%
Ki (human CRF1): 4.92 ± 0.57 nM
SMILES: CCC(CC)c1cc(C)nn2c(-c3sc(N4CCOCC4)nc3Cl)c(C)nc12 [Example 102, N-{4-chloro-5-[8-(1-ethyl-propyl)-2,6-dimethyl-imidazo[1,2-b]pyridazin-3-yl]-thiazol-2-yl}-morpholine, hydrochloride salt]

ED50 [3]: 1.3 mg/kg
rat Vdist [2]: 2 L/kg
percent inhibition at 50 μM (human CRF2): 16.9±1.9%
Ki (human CRF1): 9.98 ± 0.72 nM
SMILES: CCC(CC)c1cc(C)nn2c(-c3sc(N4CCOCC4)nc3Cl)c(C)nc12 [Example 199, N-{4-chloro-5-[8-(1-ethyl-propyl)-2,6-dimethyl-imidazo[1,2-b]pyridazin-3-yl]-thiazol-2-yl}-morpholine]

SMILES: CCCN(CCC)c1cc(C)nc2c(-c3cnc(N(C)C)cc3C)c(C)nn12 [NBI30775]
rat Vdist [1]: 76 L/kg
